This test addresses T1, LXRβ (Homo sapiens, UniProt P55055).
T1 construct: Co-transfection expression plasmids, comprising full-length LXRα (pCMX-h LXRα[…] or LXRβ (pCMX-hLXRβ)); expressed in transfected cells; host or cells: CV-1 African Green Monkey Kidney Cells
T1 sequence (P55055 1-460): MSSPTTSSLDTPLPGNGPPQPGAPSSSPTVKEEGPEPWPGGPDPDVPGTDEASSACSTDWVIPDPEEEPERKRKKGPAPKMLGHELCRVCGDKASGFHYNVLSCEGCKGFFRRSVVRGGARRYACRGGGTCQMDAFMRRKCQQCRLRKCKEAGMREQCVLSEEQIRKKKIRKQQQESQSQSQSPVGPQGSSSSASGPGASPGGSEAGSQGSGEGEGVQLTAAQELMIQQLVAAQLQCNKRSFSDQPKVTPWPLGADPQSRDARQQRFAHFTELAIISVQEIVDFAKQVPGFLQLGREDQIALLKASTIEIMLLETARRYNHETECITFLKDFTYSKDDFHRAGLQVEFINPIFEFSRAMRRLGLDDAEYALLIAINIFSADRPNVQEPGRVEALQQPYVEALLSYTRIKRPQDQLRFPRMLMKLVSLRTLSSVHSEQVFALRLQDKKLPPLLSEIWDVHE
T1 sequence (P19793 1-462 partner): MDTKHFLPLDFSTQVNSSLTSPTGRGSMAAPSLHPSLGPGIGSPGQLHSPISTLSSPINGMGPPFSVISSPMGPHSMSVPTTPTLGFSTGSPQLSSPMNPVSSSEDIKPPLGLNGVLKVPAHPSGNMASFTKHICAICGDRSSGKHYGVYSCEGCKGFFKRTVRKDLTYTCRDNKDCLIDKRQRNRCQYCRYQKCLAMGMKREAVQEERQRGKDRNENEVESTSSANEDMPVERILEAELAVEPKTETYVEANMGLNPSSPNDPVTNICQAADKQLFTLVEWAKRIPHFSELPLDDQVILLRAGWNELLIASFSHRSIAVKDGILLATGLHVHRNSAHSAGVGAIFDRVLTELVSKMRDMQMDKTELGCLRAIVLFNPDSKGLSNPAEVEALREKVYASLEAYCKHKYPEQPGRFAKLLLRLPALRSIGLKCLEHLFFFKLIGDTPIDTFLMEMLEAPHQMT
As to the kind of experiment: Co-transfection assay (LXRE luciferase reporter), LXRβ. The following applies: for EC50: CV-1 cells transfected with pCMX-hLXRβ and LXREx1-Tk-Luciferase, 20 hours incubation; for Emax: LXRβ co-transfection, relative to high control 1-(2,4-difluorobenzyl)-2-oxo-6-(4-phenoxyphenyl)-4-(trifluoromethyl)-1,2-dihydropyridine-3-carbonitrile, read-out: % Efficacy. The format is cell-based. An outline of the steps:
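Cell-based LXRβ agonism measured as LXRE-luciferase induction in transiently transfected CV-1 cells after 20 h treatment. Potency is the curve-fit EC50; efficacy is expressed as percent of a full-agonist control's maximal response.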
A general note: In a reporter assay the amount or activity of a reporter protein is the signal.

What is called EC50 is the concentration at which the effect is half-maximal. Low values mean a more potent agent, high ones a less potent agent.

For `Cc1nc(C(F)(F)F)cn1-c1ccc(-c2cccc(S(C)(=O)=O)c2)cc1-n1nncc1-c1ccc(C(F)(F)F)cc1` [Example 62, 1-{3′-(methylsulfonyl)-4-[2-methyl-4-(trifluoromethyl)-1H-imidazol-1-yl]biphenyl-3-yl}-5-[4-(trifluoromethyl)phenyl]-1H-1,2,3-triazole], it took 276 nM to reach a half-maximal effect (EC50) and the Emax was determined as 91%.
The like results for `Cc1ccc(-c2cnnn2-c2cc(-c3cc(Cl)c(CO)c(S(C)(=O)=O)c3)ccc2-n2cc(C(F)(F)F)nc2C)cc1` [Example 63, {3-chloro-3′-[5-(4-methylphenyl)-1H-1,2,3-triazol-1-yl]-5-(methyllsulfonyl)-4′-[2-methyl-4-(trifluoromethyl)-1H-imidazol-1-yl]biphenyl-4-yl}methanol] were, in that order, 281 nM and 68%.
In the case of `Cc1nc(C(F)(F)F)cn1-c1ccc(-c2cccc(S(C)(=O)=O)c2)cc1-n1nncc1-c1ccc(Cl)c(C(F)(F)F)c1` [Example 64, 5-[4-chloro-3-(trifluoromethyl)phenyl]-1-{3′-(methylsulfonyl)-4-[2-methyl-4-(trifluoromethyl)-1H-imidazol-1-yl]biphenyl-3-yl}-1H-1,2,3-triazole], the EC50 is 289 nM and the Emax was 86%.
The like results for `Cc1nc(C(F)(F)F)cn1-c1ccc(-c2cccc(S(C)(=O)=O)c2)cc1-n1nncc1-c1ccc(OC(F)F)cc1` [Example 65, 5-{4-[(difluoromethyl)oxy]phenyl}-1-{3′-(methylsulfonyl)-4-[2-methyl-4-(trifluoromethyl)-1H-imidazol-1-yl]biphenyl-3-yl}-1H-1,2,3-triazole] were, in that order, 297 nM and 80%.
The like results for `Cc1nc(C(F)(F)F)cn1-c1ccc(-c2cccc(S(C)(=O)=O)c2)cc1-n1nncc1-c1ccc(Cl)cc1` [Example 66, 5-(4-chlorophenyl)-1-{3′-(methylsulfonyl)-4-[2-methyl-4-(trifluoromethyl)-1H-imidazol-1-yl]biphenyl-3-yl}-1H-1,2,3-triazole] were, in that order, 306 nM and 98%.
In the same order, the values of `Cc1nc(C(F)(F)F)cn1-c1ccc(-c2cc(F)c(CO)c(S(C)(=O)=O)c2)cc1-n1nncc1-c1ccc(Cl)cc1Cl` [Example 67, {3′-[5-(2,4-dichlorophenyl)-1H-1,2,3-triazol-1-yl]-3-fluoro-5-(methylsulfonyl)-4′-[2-methyl-4-(trifluoromcehyl)-1H-imidazol-1-yl]biphenyl-4-yl}methanol] are 127 nM and 81%.
In the case of `Cc1nc(C(F)(F)F)cn1-c1ccc(-c2cccc(S(C)(=O)=O)c2)cc1-n1nncc1-c1ccc(OC(F)(F)F)cc1Cl` [Example 68, 5-{2-chloro-4-[(trifluoromethyl)oxy]phenyl}-1-{3′-(methylsulfonyl)-4-[2-methyl-4-(trifluoromethyl)-1H-imidazol-1-yl]biphenyl-3-yl}-1H-1,2,3-triazole], the response was half-maximal at 307 nM (EC50) and the Emax is 80%.
Consider `Cc1nc(C(F)(F)F)cn1-c1ccc(-c2cccc(S(C)(=O)=O)c2)cc1-n1nncc1-c1ccc(Cl)c(F)c1` [Example 69, 5-(4-chloro-3-fluorophenyl)-1-{3′-(methylsulfonyl)-4-[2-methyl-4-(trifluoromethyl)-1H-imidazol-1-yl]biphenyl-3-yl}-1H-1,2,3-triazole], for which a half-maximal effect (EC50) was put at 341 nM and the Emax amounted to 113%.
In the same order, the values of `Cc1nc(C(F)(F)F)cn1-c1ccc(-c2cc(Cl)c(CO)c(S(C)(=O)=O)c2)cc1-n1nncc1-c1ccc(Cl)cc1` [Example 70, {3-chloro-3′-[5-(4-chlorophenyl)-1H-1,2,3-triazol-1-yl]-5-(methylsulfony)-4′-[2-methyl-4-(trifluoromethyl)-1H-imidazol-1-yl]biphenyl-4-yl}methanol] are 361 nM and 40%.
The like results for `Cc1nc(C(F)(F)F)cn1-c1ccc(-c2cccc(S(C)(=O)=O)c2)cc1-n1nncc1-c1cc(F)c(F)c(F)c1` [Example 71, 1-{3′-(methylsulfonyl)-4-[2-methyl-4-(trifluoromethyl)-1H-imidazol-1-yl]biphenyl-3-yl}-5-(3,4,5-trifluorophenyl)-1H-1,2,3-triazole] were, in that order, 400 nM and 105%.
In the same order, the values of `Cc1nc(C(F)(F)F)cn1-c1ccc(-c2cccc(S(C)(=O)=O)c2)cc1-n1nncc1-c1ccc(C(C)C)cc1` [Example 72, 5-[4-(1-methylethyl)phenyl]-1-{3′-(methylsulfonyl)-4-[2-methyl-4-(trifluoromethyl)-1H-imidazol-1-yl]biphenyl-3-yl}-1H-1,2,3-triazole] are 473 nM and 80%.
Take `Cc1nc(C(F)(F)F)cn1-c1ccc(-c2cccc(S(C)(=O)=O)c2)cc1-n1nncc1-c1ccc2c(c1)OC(F)(F)O2` [Example 73, 5-(2,2-difluoro-1,3-benzodioxol-5-yl)-1-{3′-(methylsulfonyl)-4-[2-methyl-4-(trifluoromethyl)-1H-imidazol-1-yl]biphenyl-3-yl}-1H-1,2,3-triazole]: a half-maximal response (EC50) required 476 nM and the Emax was 99%.
In the same order, the values of `COc1ccc(-c2cnnn2-c2cc(-c3cccc(S(C)(=O)=O)c3)ccc2-n2cc(C(F)(F)F)nc2C)cc1C(F)(F)F` [Example 74, 5-[4-(methyloxy)-3-(trifluoromethyl)phenyl]-1-{3′-(methylsulfonyl)-4-[2-methyl-4-(trifluoromethyl)-1H-imidazol-1-yl]biphenyl-3-yl}-1H-1,2,3-triazole] are 488 nM and 72%.
The like results for `Cc1nc(C(F)(F)F)cn1-c1ccc(-c2cccc(S(C)(=O)=O)c2)cc1-n1nncc1-c1ccc(Cl)c(Cl)c1` [Example 75, 5-(3,4-dichlorophenyl)-1-{3′-(methylsulfonyl)-4-[2-methyl-4-(trifluoromethyl)-1H-imidazol-1-yl]biphenyl-3-yl}-1H-1,2,3-triazole] were, in that order, 127 nM and 97%.
For `Cc1nc(C(F)(F)F)cn1-c1ccc(-c2cccc(S(C)(=O)=O)c2)cc1-n1nncc1-c1ccc(Cl)cc1Cl` [Example 76, 5-(2,4-dichlorophenyl)-1-{3′-(methylsulfonyl)-4-[2-methyl-4-(trifluoromethyl)-1H-imidazol-1-yl]biphenyl-3-yl}-1H-1,2,3-triazole], it took 500 nM to reach a half-maximal effect (EC50) and the Emax was 69%.
The like results for `Cc1nc(C(F)(F)F)cn1-c1ccc(-c2cccc(S(C)(=O)=O)c2)cc1-n1nncc1-c1ccc(F)cn1` [Example 77, 5-fluoro-2-(1-{3′-(methylsulfonyl)-4-[2-methyl-4-(trifluoromethyl)-1H-imidazol-1-yl]biphenyl-3-yl}-1H-1,2,3-triazol-5-yl)pyridine] were, in that order, 3330 nM and 63%.
The like results for `Cc1nc(C(F)(F)F)cn1-c1ccc(-c2cc(F)c(CO)c(S(C)(=O)=O)c2)cc1-n1nncc1-c1ccc(OC(F)(F)F)c(Cl)c1` [Example 78, {3′-(5-{3-chloro-4-[(trifluoromethyl)oxy]phenyl}-1H-1,2,3-triazol-1-yl)-3-fluoro-5-(methylsulfonyl)-4′-[2-methyl-4-(trifluoromethyl)-1H-imidazol-1-yl]biphenyl-4-yl}methanol] were, in that order, 102 nM and 94%.
As for `Cc1nc(C(F)(F)F)cn1-c1ccc(-c2cc(Cl)c(CO)c(S(C)(=O)=O)c2)cc1-n1nncc1-c1ccc(Cl)c(Cl)c1` [Example 79, {3-chloro-3′-[5-(3,4-dichlorophenyl)-1H-1,2,3-triazol-1-yl]-5-(methylsulfonyl)-4′-[2-methyl-4-(trifluoromethyl)-1H-imidazol-1-yl]biphenyl-4-yl}methanol], the EC50 is 227 nM and the Emax turned out to be 71%.
Turning to `Cc1nc(C(F)(F)F)cn1-c1ccc(-c2cccc(S(C)(=O)=O)c2)cc1-n1nncc1-c1ccc(C(F)(F)F)nc1` [Example 80, 5-(1-{3′-(methylsulfonyl)-4-[2-methyl-4-(trifluoromethyl)-1H-imidazol-1-yl]biphenyl-3-yl}-1H-1,2,3-triazol-5-yl)-2-(trifluoromethyl)pyridine], the EC50 came to 2690 nM and the Emax stood at 81%.

The values above are taken from patent US9834542B2, “LXR modulators” (BRISTOL-MYERS SQUIBB COMPANY, priority 2013, dated 2017).
